Test results taken from patent US20160089319A1, “ACTIVES FOR STIMULATING DIFFERENTIATION OF KERATINOCYTES TO LIGHTEN HYPERPIGMENTED SKIN” (ELC MANAGEMENT LLC, priority 2014, published 2016).

Tested on: basement membrane in hyperpigmented lesions
Test: Further studies by the inventors on morphology of the basement membrane in hyperpigmented lesions (results not shown)
Type: in vivo
Conditions: formulation containing the substance but no Phytofix

## sodium ribonucleic acid
  improvement of the morphology of the basement membrane: no improvement of the morphology of the basement membrane
